This note sets out measurements from US12168008B2, “Oxabicycloheptanes for modulation of immune response” (LIXTE BIOTECHNOLOGY, INC., priority 2016, dated 2024).

For one assay, the system named is Naïve CD4 cells. Put plainly: T cell stimulation and skewing of naive CD4 cells. It is filed as cell-based, mouse. The method, then: Naïve CD4 cells were isolated from mice splenocytes and activated in vitro with anti-CD3 and CD28 in the presence of TGF-β or IL4 to induce development of Treg or Th2 CD4+ cells respectively. After 72 hours, intranuclear expressions of Foxp3 or GATA3 were quantitated by flow cytometry to determine percentage of Treg or Th2 cells respectively. […] In addition, the relative proportion of Th2 and Th1 CD4+ cells was quantified by labeling for T-bet. […] Next, the functional consequence of Th1 CD4+ cell with LB-100 treatment was explored. […] This was shown with both intracellular staining (FIG. 38D) and measurement of cytokine secretion (FIG. 38E-F).
T cell stimulation and skewing—Naïve CD4 cells were isolated from mice splenocytes (StemCell). Cells were activated for 3 days using immobilized anti-CD3 (10 ug/ml) and soluble anti-CD28 (2 ug/ml). Skewing conditions were as follows: TH1, 1 .ig/mL anti-IL4, 5 ng/mL IL2, and 10 ng/mL IL12; TH2, 1 .ig/mL anti-IFN-7, 5 ng/mL IL2, and 10 ng/mL IL4; Treg, 1 .ig/mL anti-IFNγ, and 1 ig/mL anti-IL4, and 2 ng/mL TGFβ1. Bead-based multianalyte flow immunoassays (BD Bioscience) were used to measure cytokine production in the supernatant per manufacturer's instruction. Absolute cell numbers were quantified with flow cytometry using counting beads (Biolegend).

Another assay concerns CD4+ T cells. Put plainly: Human mixed lymphocyte reaction (Example 13). It is filed as cell-based. On the procedure: FIG. 39A. DCs were induced from purified monocytes by culturing in IL4 and GM-CSF for 7 days. 10^5 purified CFSE labelled CD4+ T cells were then co-cultured with 10^4 allogenic DCs in the presence of a titration of LB-100 in duplicates or triplicates for 5 days. LB-100 was replenished on day 3. Supernatants were collected on day 5 and measured for IFN-γ production. FACS analysis was performed on the cultured cells.
In vitro activity of LB-100 in human mixed lymphocytes reactions: To further confirm the immune-modulating effect of LB-100 has clinical utility, mixed lymphocyte reactions (MLRs) were performed using PBMC from healthy human donors. Monocyte derived dendritic cells were co-cultured with allogenic CD4+ T cells labelled with cytosolic dye CFSE. LB-100 was given on the day of co-culture (Day 0) and again on Day 3. Proliferation and IFN-γ secretion by CD4 T cells were assessed on Day 5 (FIG. 39A). There was a significant increase in CD4 T cell proliferation, as measured by the percentage of dividing cells, with LB-100 treatment at 1 μM (31% compared to 20% in controls) (FIG. 39B). There was also a trend towards increased proliferation at lower LB100 concentrations (in the sub-micromolar range). […] Also examined was the effect of lineage differentiation in CD4 T cells by labeling for T-bet. […] Next tested whether LB-100 could enhance IFN-γ secretion in vitro in combination with PD1 blockade using Nivolumab. A similar MLR assay was performed with LB-100.
Human mixed lymphocyte reaction—as previously described in 39. Dendritic cells (DCs) were generated by culturing monocytes isolated from PBMC using a monocyte isolation kit (StemCell) in vitro for 7 days with 500U/ml interleukin-4 (IL-4) and 250 U/ml GM-CSF (R&D Systems). CD4+ T cells (1×10^5) isolated with CD4 isolation kit (StemCell) and labeled with CFSE (ThermoFisher) were co-cultured with allogeneic DCs (1×10^4). At the initiation of assay, a titration of LB-100 and/or Nivolumab was added. After 3 days, LB-100 was replenished to the final indicated concentration. After 5 days, culture supernatants were analyzed by ELISA (eBioscience) and cells were analyzed by flow cytometry. At least 3 separate donors were obtained and results of one representative donor were reported.

In the case of `CN1CCN(C(=O)C2C(C(=O)O)[C@H]3CC[C@@H]2O3)CC1` (some centres unmarked) [LB-100], the “frequency of GATA3 expressing cells relative to Tbet expressing cells” value in the assay with Naïve CD4 cells is listed as “decreased significantly”. Moreover, in the assay with Naïve CD4 cells (72 hours, dose dependent), the “induction of Foxp3 by TGF-β” value was “significantly impaired” and the “induction of GATA3 by IL-4” value is “significantly impaired”. Moreover, the “TNF-α and IL2 secretion” value in the assay on Naïve CD4 cells (Th1 and Th2 conditions) is recorded as “increased”. Also, the IFN-γ expression entry in the assay on Naïve CD4 cells (Th1 and Th2 skewing conditions) is on record as “dose dependent increase”. The “Secretion of IL4” value in the assay on Naïve CD4 cells (Th2 conditions) was “decreased”. Besides, in the assay on CD4+ T cells (0.2 μM), the “enhancement of IFN-γ release” value is on record as 3.5 fold. Besides, in the assay with CD4+ T cells (1 μM), the “T-bet expression in CD4 T cells” value is reported as “significantly increased” and the “enhancement of IFN-γ release” value is reported as 4 fold. For the same compound, in the assay with CD4+ T cells (1 μM, day 5, controls 20%), the “CD4 T cell proliferation, percentage of dividing cells” value came out at 31%. Also, the “CD4 T cell proliferation” value with CD4+ T cells (5 μM) is on record as “impaired”.
